# Results published in patent publication US20030008913A1, “Derivatives of 2,2-dimethyl 3(2-fluoro vinyl) cyclopropane carboxylic acid, their preparation process and their use as pesticides” (priority 1997, published 2003).
# Tested on: Blattela
# Assay: Knockdown-effect against Blattela in a windtunnel (comparative example)
# Assay type: in vivo
# Conditions: Rate 0.003% w/v in 80% OPD 120 acetone mixture
# Procedure: The knockdown-effect at 30 seconds and 2 minutes of the compounds of Examples 14, 27, 43 and lmiprothrin, a commercially used pyrethroid, against Blattela was assessed.
# The tests were carried out in a windtunnel. The active ingredient was diluted to 0.003% w/v in an 80% OPD 120 acetone mixture. Controls (i.e., sprayed with the carrier liquid alone) were inserted at the beginning of the test, and twice at the end.
structure (smiles),measurement,setting,value
C#CCN1CC(=O)N(COC(=O)[C@@H]2C(C=C(C)C)C2(C)C)C1=O (mixture of isomers) [Imiprothrin],knockdown-effect at 30 sec.,30 sec.,0%
same,knockdown-effect at 2 min,2 min,10%
